Data on two compounds can be found in patent publication US8329697B2, “Imidizo[1,2-A]pyrazines useful as AHCY hydrolase inhibitors” (Merck Sharp & Dohme Corp., priority 2008, dated 2012).

In one test the target is AHCY enzyme (UniProt P23526). The experiment in a line: In vitro AHCY activity assay (ThioGlo1 fluorescence). As to conditions: recombinant expressed human or mouse AHCY enzyme; SAH substrate; ThioGlo1 readout. In kind it is biochemical. The method, then: In vitro AHCY Activity Assay
The AHCY activity of the compounds of the invention can be measured by the following in vitro assay.
The AHCY enzyme assay is based on the principle of fluorescence emission following incubation of a reactive dye with the products of an AHCY catalyzed reaction. The reactive dye (Thioglo1) binds homocysteine through its thiol-containing moiety. The products of the AHCY catalyzed reaction, adenosine and homocysteine, are produced from the hydrolysis of SAH (s-adenosylhomocysteine) through AHCY's hydrolase activity.
The reaction is optimized in 96-, 384-, 1536- and 3456-assay plate formats with recombinant expressed human or mouse AHCY enzyme. When run under initial velocity conditions, the assay is suitable for IC50 and % inhibition calculations.
• 1) ThioGlo1 (catalog 595501, Calbiochem); 100 mM in DMSO • 2) SAH (catalog A-9384, Sigma); 4.69 mM with 0.06 N HCl • 3) Aristeromycin (catalog A-0928, Sigma); 100 mM in DMSO • 4) NAD (catalog 43410, Sigma); 14.5 mM in water • 5) EDTA in 500 mM pH 8 (catalog BP2482-100, Fisher) • 6) DTT stock 200 mM in water • 7) AHCY enzyme (diluted with 100 mM tris pH7.5) Dilutions immediately prior to use: • 1. SAH 750 μM (10×) (dilute with 100 mM Iris pH 7.5) • 2. Aristeromycin (10×) (dilute to 1 mM with 100 mM Tris pH7.5) • 3. ThioGlo1 (10×) (dilute to 100 μM in Tris pH7.5) • 4. […] Read plate (Ex 380 Em 510)

Test [1] has as its system AHCY in HEK293 and/or SH-SY5Y cells. The experiment in a line: Cell-based assay of AHCY inhibition (secreted homocysteine). As to conditions: secreted homocysteine from Hek293 or SH-SY5Y cells, 72 hrs compound treatment. The text has this:
Cell-Based Assay of AHCY Inhibition
The AHCY activity of the compounds of the invention can be measured by the following cell-based assay.
Post treatment collection of the adherent Hek293 and/or SH-SY5Y cells is also made for a viability and proliferation measure. Since the amount of secreted homocysteine is limited by the amount of SAH that is converted to homocysteine in the cells and its subsequent secretion, an EC50 measure and % inhibition relative to DMSO control cells can be made. Since the amount of secreted metabolites such as homocysteine can also be related to the absolute and cellular viability, an MTT (3-(4,5-Dimethylthiazol-2-yl)-2,5-diphenyltetrazolium bromide) measure of proliferation and relative cytotoxicty (as compared to control conditions) may also be made.
• 1. The day before compound treatment, plate 20,000 cells (Hek293 or SH-SY5Y) in 96 well cell culture treated plates in 100 μl of cell culture media (DMEM and 10% fetal bovine serum). • 2. Add fresh media plus compound (and DMSO treated controls) for 72 hrs. • 3. Collect conditioned media for measurement of secreted homocysteine and perform viability/proliferation assay on adherent cells. Measure of Secreted Homocysteine: • 1. […]
a. […] Detection: Fluorescence: Excitation 385 nm, Emission 515 nm • v. […]
b. […] absorbance at 550 nm and 690 nM. • 6. Express readout as 550 nM-690 nM.

Consider `Nc1nccn2c([C@@H]3CC[C@@H](O)[C@H]3O)cnc12` [Example 2, (1R,2S,3S)-3-(8-aminoimidazo[1,2-a]pyrazin-3-yl)cyclopentane-1,2-diol], for which the half-inhibitory concentration (IC50) on AHCY enzyme is 692 nM; in test [1], 1.4 nM.

For the compound `Nc1nccn2c([C@@H]3C=C(CO)[C@@H](O)[C@H]3O)cnc12` [Example 1, (1S,2R,5S)-5-(8-aminoimidazo[1,2-a]pyrazin-3-yl)-3-(hydroxymethyl)cyclopent-3-ene-1,2-diol], the half-inhibitory concentration (IC50) (at AHCY enzyme; in test [1]) was 4 nM throughout.

By IC50 is commonly meant the point on the concentration scale where inhibition reaches its midpoint.
